Structures can show the parent of a compound that is named as a salt.
Legend:
human PHD2 [1] = biological target: T1, human PHD2 (Homo sapiens (Human), UniProt Q9GZT9); assay: Test 1: human PHD2 inhibitory activity, [14C]-2-oxoglutarate to [14C]-succinic acid radiometric assay with HIF-1α peptide; format: biochemical; conditions: read-out: Percent inhibition (% at 1 μM)
Description: (1) Expression and Preparation of Human PHD2
Human PHD2 was expressed in insect cells (HighFive cells). A registered sequence of human PHD2 (NM_022051) was introduced into the pFastBacl vector (Invitrogen), and the sequence was verified. The vector was introduced into Sf9 insect cells (Invitrogen) to acquire human PHD2 baculovirus. HighFive insect cells (Invitrogen) were infected with this recombinant virus and cultured at 27° C. for 72 hours; thereafter, a cell lysis solution containing various protease inhibitors was added and the cells were disrupted to form a suspension. The suspension of disrupted cells was centrifuged at 4° C. and 100,000×g for 30 minutes and the supernatant was recovered as a cell lysate.
(2) Measurement of Human PHD2 Inhibitory Activity
The activity of human PHD2 enzyme was measured with a substrate which is a 19-residue partial peptide based on the sequence of HIF-1α. Specifically, the conversion of 2-oxoglutarate to succinic acid which would occur simultaneously with the hydroxylation of a proline residue in the peptide with the PHD2 enzyme was utilized. To be more specific, [^14C]-2-oxogiutarate was added to the reaction system to initiate an enzymatic reaction and the [^14C]-2-oxoglutarate remaining after the reaction was bound to 2,4-dinitrophenylhydrazine (DNPH), with the resulting precipitate being removed by passage through a filter. Subsequently, radiation counting was conducted on the resulting [^14C]-succinic acid.
A test compound, HIF-1αpeptide and [^14C]-2-oxoglutarate were preliminarily added onto 96-well plates and reaction was initiated by adding a human PHD2 enzyme solution (4 μg/well). After 15-min incubation at 37° C., a DNPH-containing quench solution was added and the mixture was allowed to stand at room temperature for 30 minutes. Thereafter, an excess of non-radiolabelled 2-oxoglutarate was added and the mixture was allowed to stand at room temperature for 60 minutes. The resulting precipitate was removed by passage through a filter and the radiation count on the [^14C]-succinic acid was quantified (with MicroBeta). Radiation counting was conducted for each well and the human PHD2 inhibitory activity of each test compound was calculated on the basis of the values for the substrate-free group and the test compound-free group.

human PHD2 [2] = biological target: T1, human PHD2; assay: Test 2: human PHD2 inhibitory activity, fluorescence polarization assay of HIF-1α peptide proline hydroxylation; format: biochemical; conditions: for inhibition at 1 µM: read-out: Percent inhibition (% at 1 μM)
In short: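 A 19-mer HIF-1α peptide served as substrate, with the reaction started by 40 ng/well human PHD2 (cell lysate of NM_022051-transfected cells) and run 20 min at 30° C. before EDTA stop. Hydroxylated product bound anti-HIF-OH antibody, read by fluorescence polarization versus no-compound control.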

[3] = test compound's concentration 1 μM, Test 1, [14C]-2-oxoglutarate radiometric assay
[4] = test compound's concentration 1 μM, Test 2, fluorescence polarization assay

T1 sequence (Q9GZT9 whole entry): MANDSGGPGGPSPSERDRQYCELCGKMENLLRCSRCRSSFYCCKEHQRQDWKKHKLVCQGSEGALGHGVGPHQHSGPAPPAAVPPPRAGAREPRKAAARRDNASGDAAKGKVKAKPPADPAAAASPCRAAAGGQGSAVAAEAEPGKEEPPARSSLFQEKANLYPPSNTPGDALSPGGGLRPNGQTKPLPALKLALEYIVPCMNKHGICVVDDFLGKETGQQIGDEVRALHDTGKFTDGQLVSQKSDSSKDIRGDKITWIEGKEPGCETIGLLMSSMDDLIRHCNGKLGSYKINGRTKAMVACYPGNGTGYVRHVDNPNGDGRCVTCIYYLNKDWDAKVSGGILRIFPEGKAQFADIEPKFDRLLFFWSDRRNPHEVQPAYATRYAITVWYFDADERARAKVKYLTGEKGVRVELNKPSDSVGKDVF

inhibition at 1 µM (human PHD2 [1]; [3])	inhibition at 1 µM (human PHD2 [2]; [4])	IC50 (human PHD2 [2]; human PHD2, fluorescence polarization assay, 20-min incubation at 30° C.)	Structure (SMILES)	inhibition at 1 µM (human PHD2 [1])	inhibition at 1 µM (human PHD2 [2])
78%	94%	–	O=C(O)CNC(=O)C1=C(O)CC2(CCOCC2)N(Cc2ccc(-c3ccc(C(F)(F)F)cc3)cc2)C1=O [Ex. 1-1, N-[(4-Hydroxy-2-oxo-1-{[4′-(trifluoromethyl)biphenyl-4-yl]methyl}-9-oxa-1-azaspiro[5.5]undec-3-en-3-yl)carbonyl]glycine]	–	–
94%	92%	–	O=C(O)CNC(=O)C1=C(O)CC2(COC2)N(Cc2ccc(-c3ccccc3)cc2)C1=O [Ex. 1-2, N-{[5-(Biphenyl-4-ylmethyl)-8-hydroxy-6-oxo-2-oxa-5-azaspiro[3.5]non-7-en-7-yl]carbonyl}glycine]	–	–
–	–	–	CC1CN(Cc2ccc(OC(F)(F)F)cc2)C(=O)C(C(=O)NCC(=O)O)=C1O (stereo not drawn) [Ex. 1-3, N-({4-Hydroxy-5-methyl-2-oxo-1-[4-(trifluoromethoxy)benzyl]-1,2,5,6-tetrahydropyridin-3-yl}carbonyl)glycine sodium salt]	74%	78%
50%	57%	–	O=C(O)CNC(=O)C1=C(O)C2(CCCCC2)CN(Cc2ccccc2)C1=O [Ex. 1-6]	–	–
54%	68%	–	O=C(O)CNC(=O)C1=C(O)C2(CCCCC2)CN(Cc2ccc3ccccc3c2)C1=O [Ex. 1-7]	–	–
54%	87%	–	O=C(O)CNC(=O)C1=C(O)C2(CCCCC2)CN(Cc2ccc(-c3ccccc3)cc2)C1=O [Ex. 1-8]	–	–
88%	93%	–	O=C(O)CNC(=O)C1=C(O)CC2(CCCC2)N(Cc2ccc(-c3ccccc3)cc2)C1=O [Ex. 1-9]	–	–
93%	92%	–	O=C(O)CNC(=O)C1=C(O)CC2(CCOCC2)N(Cc2ccc(-c3ccccc3)cc2)C1=O [Ex. 1-10]	–	–
95%	93%	–	O=C(O)CNC(=O)C1=C(O)C2(CCOCC2)CN(Cc2ccc(-c3ccccc3)cc2)C1=O [Ex. 1-11]	–	–
64%	81%	–	O=C(O)CNC(=O)C1=C(O)C2(CCCC2)CN(Cc2ccc(-c3ccccc3)cc2)C1=O [Ex. 1-13]	–	–
21%	36%	–	O=C(O)CNC(=O)C1=C(O)C2(CCCCCC2)CN(Cc2ccc(-c3ccccc3)cc2)C1=O [Ex. 1-14]	–	–
72%	86%	–	O=C(O)CNC(=O)C1=C(O)C2(CCC2)CN(Cc2ccc(-c3ccccc3)cc2)C1=O [Ex. 1-15]	–	–
84%	85%	–	CC1(C)CC(O)=C(C(=O)NCC(=O)O)C(=O)N1Cc1ccc(-c2ccccc2)cc1 [Ex. 1-17]	–	–
72%	73%	–	O=C(O)CNC(=O)C1=C(O)CCN(Cc2ccccc2)C1=O [Ex. 1-21]	–	–
84%	82%	–	O=C(O)CNC(=O)C1=C(O)CCN(Cc2ccc(Br)cc2)C1=O [Ex. 1-23]	–	–
74%	84%	–	O=C(O)CNC(=O)C1=C(O)CCN(Cc2cccc(-c3ccccc3)c2)C1=O [Ex. 1-24]	–	–
72%	76%	–	O=C(O)CNC(=O)C1=C(O)CCN(Cc2ccccc2-c2ccccc2)C1=O [Ex. 1-25]	–	–
90%	–	–	O=C(O)CNC(=O)C1=C(O)CCN(CC2CCC(c3ccccc3)CC2)C1=O (stereo not drawn) [Ex. 1-26]	–	–
75%	89%	–	CC1(C)CN(Cc2ccc(-c3ccccc3)cc2)C(=O)C(C(=O)NCC(=O)O)=C1O [Ex. 1-27]	–	–
94%	92%	88 nM	O=C(O)CNC(=O)C1=C(O)CCN(Cc2ccc(Oc3ccccc3)cc2)C1=O [Ex. 1-28]	–	–
81%	86%	–	O=C(O)CNC(=O)C1=C(O)CCN(Cc2ccc3ccccc3c2)C1=O [Ex. 1-29]	–	–
77%	83%	–	O=C(O)CNC(=O)C1=C(O)CCN(CCCCCc2ccccc2)C1=O [Ex. 1-30]	–	–
89%	89%	–	O=C(O)CNC(=O)C1=C(O)CCN(CCc2ccc(-c3ccccc3)cc2)C1=O [Ex. 1-31]	–	–
78%	82%	–	O=C(O)CNC(=O)C1=C(O)CCN(Cc2ccc3cccnc3c2)C1=O [Ex. 1-32]	–	–
72%	84%	–	O=C(O)CNC(=O)C1=C(O)CCN(Cc2cccc3ccccc23)C1=O [Ex. 1-33]	–	–

inhibition at 1 µM (human PHD2 [1]; [3])	inhibition at 1 µM (human PHD2 [2]; [4])	IC50 (human PHD2 [2]; human PHD2, fluorescence polarization assay, 20-min incubation at 30° C.)	Structure (SMILES)	inhibition at 1 µM (human PHD2 [1])	inhibition at 1 µM (human PHD2 [2])
58%	75%	–	O=C(O)CNC(=O)C1=C(O)CCN(CCc2ccccc2)C1=O [Ex. 1-34]	–	–
81%	90%	–	O=C(O)CNC(=O)C1=C(O)CCN(Cc2ccc(-c3ccccn3)cc2)C1=O [Ex. 1-35]	–	–
83%	85%	–	CC(C)(C)c1ccc(-c2ccc(CN3CCC(O)=C(C(=O)NCC(=O)O)C3=O)cc2)cc1 [Ex. 1-36]	–	–
87%	89%	–	O=C(O)CNC(=O)C1=C(O)CCN(Cc2ccc(C3CCCCC3)cc2)C1=O [Ex. 1-37]	–	–
48%	66%	–	O=C(O)CNC(=O)C1=C(O)CCN(c2ccccc2)C1=O [Ex. 1-38]	–	–
76%	86%	–	O=C(O)CNC(=O)C1=C(O)CCN(c2cccc(Oc3ccccc3)c2)C1=O [Ex. 1-39]	–	–
79%	91%	–	O=C(O)CNC(=O)C1=C(O)CCN(c2ccc(Oc3ccccc3)cc2)C1=O [Ex. 1-40]	–	–
89%	90%	–	O=C(O)CNC(=O)C1=C(O)CCN(Cc2cnc(-c3ccccc3)nc2)C1=O [Ex. 1-41]	–	–
90%	94%	–	O=C(O)CNC(=O)C1=C(O)CCN(Cc2ccc(Cc3ccccc3)cc2)C1=O [Ex. 1-42]	–	–
74%	79%	–	O=C(O)CNC(=O)C1=C(O)CCN(Cc2cnc(C3CCCCC3)nc2)C1=O [Ex. 1-43]	–	–
87%	91%	–	O=C(O)CNC(=O)C1=C(O)CCN(Cc2cnc(-c3ccccc3)s2)C1=O [Ex. 1-44]	–	–
82%	88%	–	O=C(O)CNC(=O)C1=C(O)CCN(Cc2cc(-c3ccccc3)no2)C1=O [Ex. 1-45]	–	–
78%	84%	–	O=C(O)CNC(=O)C1=C(O)CCN(Cc2ccc3c(c2)CCCC3)C1=O [Ex. 1-46]	–	–
67%	79%	–	COc1ccc(CN2CCC(O)=C(C(=O)NCC(=O)O)C2=O)cc1 [Ex. 1-48]	–	–
55%	55%	–	O=C(O)CNC(=O)C1=C(O)CC(c2ccccc2)N(Cc2ccccc2)C1=O (stereo not drawn) [Ex. 1-49]	–	–
77%	83%	–	O=C(O)CNC(=O)C1=C(O)CC(c2ccccc2)N(Cc2ccc(-c3ccccc3)cc2)C1=O (stereo not drawn) [Ex. 1-50]	–	–
58%	73%	–	O=C(O)CNC(=O)C1=C(O)[C@@H]2CCCC[C@@H]2N(Cc2ccc(-c3ccccc3)cc2)C1=O [Ex. 1-51]	–	–
58%	78%	–	O=C(O)CNC(=O)C1=C(O)[C@@H]2CCCCC2N(Cc2ccc(-c3ccccc3)cc2)C1=O (stereo partly drawn) [Ex. 1-52]	–	–
78%	78%	–	CCc1ccc(CN2CCC(O)=C(C(=O)NCC(=O)O)C2=O)cc1 [Ex. 1-53]	–	–
–	3%	–	COc1ccc(CN2CCC(O)=C(C(=O)N(C)CC(=O)O)C2=O)cc1 [Ex. 9-5, N-{[4-Hydroxy-1-(4-methoxybenzyl)-2-oxo-1,2,5,6-tetrahydro-3-pyridinyl]carbonyl}-N-methylglycine]	–	–
–	–	–	CC1(C)CC(O)=C(C(=O)NCC(=O)O)C(=O)N1CC(=O)NCc1ccc(-c2ccccc2)cc1 [Ex. 10-1, N-[(1-{2-[(4-Biphenylylmethyl)amino]-2-oxoethyl}-4-hydroxy-6,6-dimethyl-2-oxo-1,2,5,6-tetrahydro-3-pyridinyl)carbonyl]glycine sodium salt]	–	34%
–	6%	–	CC1(C)CC(O)=C(C(=O)NCC(=O)O)C(=O)N1CC(=O)NCc1ccc(C(F)(F)F)cc1 [Ex. 10-2]	–	–
–	10%	–	CN(Cc1ccc(F)cc1)C(=O)CN1C(=O)C(C(=O)NCC(=O)O)=C(O)CC1(C)C [Ex. 10-4]	–	–
–	96%	–	O=C(O)CNC(=O)C1=C(O)CCN(C(CO)c2ccc(-c3ccc(F)cc3)cc2)C1=O (stereo not drawn) [Ex. 11-1, N-({1-[1-(4′-Fuoro-4-biphenylyl)-2-hydroxyethyl]-4-hydroxy-2-oxo-1,2,5,6-tetrahydro-3-pyridinyl}carbonyl)glycine]	–	–

From US9422240B2, “Partially saturated nitrogen-containing heterocyclic compound” (TAISHO PHARMACEUTICAL CO., LTD, priority 2012, dated 2016)
